One assay concerns human platelets. Put plainly: FITC-lectin (WGA, S-WGA, RCA I) binding to chilled or room temperature platelets by flow cytometry. The format is cell-based. The following applies: alone.
For another assay, the system named is THP-1 cells. The assay is described as follows: In vitro phagocytic assay: ingestion of CM-Orange-labeled chilled or room temperature human platelets by THP-1 phagocytes (flow cytometry). The format is cell-based. The following applies: for inhibitory effect on chilled platelet phagocytosis (in words) / % inhibition phagocytosis: chilled platelets; for inhibitory effect on chilled platelet phagocytosis (in words): various concentrations; for inhibitory effect on RT platelet phagocytosis (in words): room temperature platelets. As for the experimental part:
CR3 expression was monitored by flow cytometry using a PE-conjugated anti-human CD11b/Mac-1 mAb. Undifferentiated or differentiated THP-1 cells (2×10^6/ml) were plated onto 24-well plates and allowed to adhere for 45 minutes at 37° C. The adherent undifferentiated or differentiated macrophages were activated by the addition of 15 ng/ml PMA for 15 min. CM-range-labeled, chilled or room temperature platelets (10^7/well), previously subjected to different treatments were added to the undifferentiated or differentiated phagocytes in Ca^2+- and Mg^2+-containing HBSS and incubated for 30 min at 37° C. Following the incubation period, the phagocyte monolayer was washed with HBSS for 3 times, and adherent platelets were removed by treatment with 0.05% trypsin/0.53 mM EDTA in HBSS at 37° C. for 5 min followed by 5 mM EDTA at 4° C. to detach the macrophages for flow cytometric analysis of adhesion or ingestion of platelets (Brown et al., 2000). […] CM-Orange-labeled platelets incubated with macrophages were resolved from the phagocytes according to their forward and side scatter properties. The macrophages were gated, 10,000 events acquired for each sample, and data analyzed with CELLQuest software (Becton Dickenson).
To analyze the effects of monosaccharides on platelet phagocytosis, phagocytes (differentiated monocytic cell line THP-1) were incubated in monosaccharide solutions at various concentrations, and the chilled or room temperature platelets were added. Values in the Figures are means±SD of 3-5 experiments comparing percentages of orange-positive monocytes containing ingested platelets incubated with RT or chilled platelets).

Regarding `O=c1ccn([C@@H]2O[C@H](COP(=O)(O)OP(=O)(O)O)[C@@H](O)[C@H]2O)c(=O)[nH]1` [UDP], the “effect on S-WGA or RCA I binding to chilled or room temperature human platelets” value with human platelets is given as “no effect”.
Turning to `CO[C@H]1O[C@H](CO)[C@@H](O)[C@H](O)[C@@H]1O` [Methyl-α-D-mannopyranoside], in the assay on THP-1 cells, the “inhibitory effect on chilled platelet phagocytosis (in words)” value is reported as “no inhibitory effect” and the “inhibitory effect on RT platelet phagocytosis (in words)” value is reported as “no inhibitory effect”.
Turning to `COC1OC(CO)C(O)C(O)C1O` [Methyl-β-D-gludopyranoside], in the assay with THP-1 cells, the “inhibitory effect on chilled platelet phagocytosis (in words)” value was “dose-dependent manner”.
`CC(=O)N[C@H]1C(O)O[C@H](CO)[C@@H](O)[C@@H]1O` (stereo partly drawn) [GlcNac, N-acetyl-D-glucosamine]: the “inhibitory effect on chilled platelet phagocytosis (in words)” value in the assay with THP-1 cells is “significantly inhibited”.
As for `CO[C@H]1O[C@H](CO)[C@@H](O)[C@H](O)[C@H]1O` [Methyl-α-D-glucopyranoside], in the assay on THP-1 cells, the “inhibitory effect on chilled platelet phagocytosis (in words)” value is “did not have an inhibitory effect”.
For the compound `CC(=O)N[C@@H]1[C@@H](O)[C@H](O)[C@@H](CO)O[C@H]1O` [β-GlcNac], the “% inhibition phagocytosis” value with THP-1 cells (0.01 mM (10 μM) monosaccharide, listed as β-anomer of GlcNAc) worked out at 80%. The “inhibitory effect on chilled platelet phagocytosis (in words)” value in the assay with THP-1 cells is “strongly inhibited”.
Turning to `O=C[C@@H](O)[C@@H](O)[C@H](O)[C@H](O)CO` [D-(+)-mannose], in the assay on THP-1 cells, the “inhibitory effect on chilled platelet phagocytosis (in words)” value is listed as “no inhibitory effect” and the “inhibitory effect on RT platelet phagocytosis (in words)” value was “no inhibitory effect”.
For the compound `CO[C@@H]1O[C@H](CO)[C@@H](O)[C@H](O)[C@@H]1O` [Methyl-β-D-mannopyranoside], in the assay with THP-1 cells, the “inhibitory effect on chilled platelet phagocytosis (in words)” value is “no inhibitory effect” and the “inhibitory effect on RT platelet phagocytosis (in words)” value is recorded as “no inhibitory effect”.
As to `O=C[C@H](O)[C@@H](O)[C@@H](O)[C@H](O)CO` [D-(+)-galactose], the “% inhibition phagocytosis” value in the assay on THP-1 cells (phagocytes incubated with 100 mM monosaccharide) is reported as “did not significantly inhibit”.

The record behind these values is patent US7858295B2, “Methods for prolonging survival of platelets using UDP-galactose” (Velico Medical, Inc., priority 2002, dated 2010).
